Experimental data: publication PMC5124248, “Antitumor activity of TY-011 against gastric cancer by inhibiting Aurora A, Aurora B and VEGFR2 kinases” (Journal of Experimental & Clinical Cancer Research : CR, 2016)
Like-named read-outs stand apart in the source and are kept apart here.

Key:
[1] = tested on: HUVECs; experiment: HUVEC tube formation assay; assay type: cell-based, human; details: HUVECs on Matrigel, 6 h
Method: HUVECs were seeded onto pre-cooled 96-well tissue culture plate coated with Matrigel™ (BD Biosciences, FranklinLakes, NJ). After the cells attached, the cells were treated by various concentration of TY-011 or equivalent amount of DMSO. The plate was incubated at 37 °C, 5% CO2 humidified atmosphere for 6 h, then cell morphology was captured with a microscopy (Olympus IX73, Tokyo, Japan).

[2] = tested on: MGC-803 cells; experiment: Annexin V/PI apoptosis analysis, MGC-803; assay type: cell-based, human; details: 48 h (7.8% control)
Method: (§1) Apoptosis was detected by FITC Annexin V Apoptosis Detection Kit I according to the manufacturer’s instructions (Dojindo, Kumamoto, Japan) to determine the phosphatidyl serine exposure. Apoptotic cells were quantified by a flow cytometer (Guava EasyCyte 6HT-2 L, Merck Millipore, Billerica, MA, USA) using the InCyte software. At least 10 000 cells were analyzed for each data point.

[3] = target: T1, VEGFR2 (Homo sapiens, UniProt P35968); experiment: HTRF KinEASE-TK kinase assay, VEGFR2; assay type: biochemical; details: mean ± SD of three independent experiments
T1 construct: purchased Carna Biosciences (Kobe, Japan)
T1 sequence (P35968 790-1356 limits assumed): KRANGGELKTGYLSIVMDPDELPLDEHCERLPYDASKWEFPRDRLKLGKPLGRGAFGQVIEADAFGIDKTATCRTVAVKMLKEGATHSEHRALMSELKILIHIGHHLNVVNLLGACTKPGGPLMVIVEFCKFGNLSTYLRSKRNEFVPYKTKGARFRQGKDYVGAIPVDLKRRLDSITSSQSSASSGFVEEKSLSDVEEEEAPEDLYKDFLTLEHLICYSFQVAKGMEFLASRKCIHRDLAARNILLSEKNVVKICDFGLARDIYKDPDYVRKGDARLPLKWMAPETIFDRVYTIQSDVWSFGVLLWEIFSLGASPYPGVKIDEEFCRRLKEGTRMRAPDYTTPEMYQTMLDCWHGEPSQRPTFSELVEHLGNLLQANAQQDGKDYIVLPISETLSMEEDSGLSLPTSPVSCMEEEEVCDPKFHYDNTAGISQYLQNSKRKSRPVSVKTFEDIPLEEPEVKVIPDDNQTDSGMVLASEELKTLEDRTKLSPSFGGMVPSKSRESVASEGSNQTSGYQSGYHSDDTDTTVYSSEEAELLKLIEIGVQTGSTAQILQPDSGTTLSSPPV
Text: (§2) The inhibition of TY-011 on activity of Aurora A, Aurora B and VEGFR2 was characterized by HTRF® KinEASE™-STK/TK kit according to the manufacturer’s instructions (Cisbio Assays, Codolet, France). Aurora A and Aurora B were gifts from Professor Jia Li, Shanghai Institute of Materia Medica/Chinese Academy of Sciences. VEGFR2 was purchased from Carna Biosciences (Kobe, Japan).

[4] = tested on: SGC-7901 cells; experiment: Annexin V/PI apoptosis analysis, SGC-7901; assay type: cell-based, human; details: 48 h (14.1% control)
Method: as §1

[5] = tested on: MKN-45 cells; experiment: CCK-8 cell proliferation assay, MKN-45; assay type: cell-based; details: Homo sapiens; MKN-45, CCK-8, Fig. 3
Method: During the logarithmic growth phase, each cell line was seeded in a 96-well tissue culture plate (Thermo Fisher Scientific, Waltham, MA, USA) at a predetermined density in complete medium, attached overnight and treated with compound for the indicated time. The medium was discarded and replaced with 10% CCK-8 (Dojindo, Kumamoto, Japan) in complete medium, then incubated the plates for another 2 h. The OD450 was measured with SpectraMax M5 (Molecular Devices, CA, USA). A background absorbance of ODblank was subtracted from all wells. The survival rate was determined with following formula: Survival rate (%) = ODcompound/ODDMSO × 100%. The IC50 values were calculated by concentration − response curve fitting using the four parameter method.

[6] = target: T2, Aurora A (Homo sapiens, UniProt O14965); experiment: HTRF KinEASE-STK kinase assay, Aurora A; assay type: biochemical
T2 construct: gift from Professor Jia Li, Shanghai Institute of Materia Medica/Chinese Academy of Sciences
T2 sequence (O14965 1-403): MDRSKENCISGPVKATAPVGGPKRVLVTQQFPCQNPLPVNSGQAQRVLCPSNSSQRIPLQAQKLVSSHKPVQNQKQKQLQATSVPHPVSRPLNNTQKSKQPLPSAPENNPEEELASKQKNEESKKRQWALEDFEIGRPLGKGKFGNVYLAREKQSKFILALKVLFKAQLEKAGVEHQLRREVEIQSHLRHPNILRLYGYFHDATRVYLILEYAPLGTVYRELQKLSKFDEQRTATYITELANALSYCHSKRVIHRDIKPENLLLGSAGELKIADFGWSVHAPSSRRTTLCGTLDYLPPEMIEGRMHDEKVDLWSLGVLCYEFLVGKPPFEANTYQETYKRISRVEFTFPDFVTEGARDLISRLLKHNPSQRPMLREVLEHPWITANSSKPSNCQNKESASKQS
Text: as §2

[7] = tested on: p-Aurora A (T288); experiment: Cellular Aurora A phosphorylation (western blot, immunofluorescence) in MGC-803 cells; assay type: cell-based, human
Method: (§3) The proteins of whole cell lysates were prepared in RIPA buffer containing protease and phosphatase inhibitors (Thermo Fisher Scientific, Waltham, MA, USA), and quantified by the bicinchoninic acid (BCA) method. Immunoblotting analysis of proteins in cell lysates was performed as previously described. Primary antibodies used were as follows: anti-Aurora A (#12100), anti-p-Aurora A (Thr288) (#3079), anti-Histone H3 (#4499), and anti-p-Histone H3 (Ser10) (#9701), and anti-cleaved caspase 3 (#9661) were purchased from Cell Signaling Technology (Danvers, MA, USA); anti-PARP-1 (#sc-8007) and anti-GAPDH (#sc-25778) were purchased from Santa Cruz (CA, USA).
(§4) Cells were cultured on glass slides coated with 0.05 mg/ml PDL (Sigma-aldrich, St. Louis, MO, USA) in the presence of TY-011 (0.8 μM) or equivalent amount of DMSO for 24 h. The cells were fixed in 4% paraformaldehyde at room temperature, then permeabilized with 0.15% Triton-X100 and blocked in 3% BSA in PBS. The primary antibodies were incubated with slides at 1:100 dilution in PBS containing 3% BSA in a wet chamber at 4 °C overnight. […] The images were captured with FCFM (fluorescence confocal microscope) (Olympus FV1000 IX81, Tokyo, Japan) under appropriate excitation and emission filters or phase-contrast microscope (Olympus IX73, Tokyo, Japan). […]

[8] = tested on: p-Histone H3 (S10), substrate of Aurora B; experiment: Cellular Histone H3 phosphorylation (western blot, immunofluorescence) in MGC-803 cells; assay type: cell-based, human
Method: as §3, §4

[9] = MGC-803 synchronized with nocodazole (100 nM) 16 h, then various concentrations for 24 h

With `CCc1cc2c(cn1)C(c1ccccc1Cl)=Nc1c(n[nH]c1C)N2` [TY-011, 9-(2-chloro-phenyl)-6-ephyl-1-methyl-2,4-dihydro-2,3,4,7,10-pentaaza-benzo[f]azulene] the “tube meshes (tube formation)” value [1] was “disturbed”, the apoptosis ([2]; MGC-803, 0.1 μM) was 39.3% and the apoptosis ([2]; MGC-803, 0.2 μM) was 78.2%. The apoptosis ([2]; MGC-803, 0.4 μM) was 86.1%, the IC50 [3] was 103 ± 6.2 nM and the apoptotic cells ([4]; SGC-7901, 0.25 μM) was 17.2%. For the same compound, the apoptotic cells ([4]; SGC-7901, 0.5 μM) was 28.4%, the apoptotic cells ([4]; SGC-7901, 1 μM) was 54.3% and the IC50 [5] was 130 ± 10 nM. The IC50 ([6]; Table S1, read-out: IC50 Aurora A) was 100 nM, the IC50 ([6]; mean ± SD of three independent experiments, read-out: Aurora A IC50) was 102 ± 10.1 nM and the “Aurora A green foci in mitotic cells, immunofluorescence” value ([7]; MGC-803, 0.8 μM, 24 h) was “became weaker or even disappeared”. The “p-Aurora A (T288), western blot” value [7, 9] was “decreased in a concentration-dependent manner”, the “p-Histone H3 (S10), immunofluorescence” value ([8]; MGC-803, 0.8 μM, 24 h) was “decreased sharply” and the “phosphorylation of Histone H3 (S10), western blot” value [8, 9] was “strongly inhibited”.
